Measurements from patent publication US20070254917A1, “INTRACELLULAR RECEPTOR MODULATOR COMPOUNDS AND METHODS” (priority 2004, published 2007).

Biological target: T1, human mineralocorticoid Receptor-α (MRα) (Homo sapiens, UniProt P08235)
T1 construct: made in house; host or cells: Sf21 insect cells (baculovirus), as described for GR
T1 sequence (P08235 1-984): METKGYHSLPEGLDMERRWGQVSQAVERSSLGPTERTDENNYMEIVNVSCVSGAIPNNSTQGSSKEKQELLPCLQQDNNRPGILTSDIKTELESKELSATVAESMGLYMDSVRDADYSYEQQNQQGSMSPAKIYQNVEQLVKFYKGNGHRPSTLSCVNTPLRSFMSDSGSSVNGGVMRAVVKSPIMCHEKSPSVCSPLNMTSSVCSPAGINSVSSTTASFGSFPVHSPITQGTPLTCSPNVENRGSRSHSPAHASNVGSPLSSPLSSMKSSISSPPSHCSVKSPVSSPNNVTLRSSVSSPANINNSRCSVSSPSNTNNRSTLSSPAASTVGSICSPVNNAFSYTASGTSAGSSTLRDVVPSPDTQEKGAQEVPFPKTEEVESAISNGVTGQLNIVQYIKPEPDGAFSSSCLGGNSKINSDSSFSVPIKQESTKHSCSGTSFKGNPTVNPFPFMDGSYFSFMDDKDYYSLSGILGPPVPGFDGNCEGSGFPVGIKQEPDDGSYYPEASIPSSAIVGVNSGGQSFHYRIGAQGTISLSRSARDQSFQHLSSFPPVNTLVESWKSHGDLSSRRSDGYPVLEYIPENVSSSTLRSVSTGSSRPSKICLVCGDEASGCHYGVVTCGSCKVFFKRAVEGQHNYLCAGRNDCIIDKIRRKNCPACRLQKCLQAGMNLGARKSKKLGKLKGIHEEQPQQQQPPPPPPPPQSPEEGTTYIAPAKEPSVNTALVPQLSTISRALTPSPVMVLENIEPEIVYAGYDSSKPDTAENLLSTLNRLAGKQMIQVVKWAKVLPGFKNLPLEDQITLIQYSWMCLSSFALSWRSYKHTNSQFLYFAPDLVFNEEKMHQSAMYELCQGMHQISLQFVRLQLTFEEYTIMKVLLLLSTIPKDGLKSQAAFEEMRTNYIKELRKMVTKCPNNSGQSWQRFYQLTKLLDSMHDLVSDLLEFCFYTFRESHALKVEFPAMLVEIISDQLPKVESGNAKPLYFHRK
Experiment: Mineralocorticoid binding assay ([3H]aldosterone displacement, MR lysate)
Protocol: Human mineralocorticoid receptor protein was prepared from a baculovirus expression plasmid comprising cDNA encoding human mineralocorticoid Receptor-α (MRα), as described for GR (Example 158).
Binding assay samples were prepared in separate mini-tubes in a 96-well format at 4° C. Each binding assay sample was prepared in a volume of 250 μl of MR-Assay Buffer (10% glycerol, 10 mM sodium phosphate, 10 mM potassium fluoride, 20 mM sodium molybdate, 0.25 mM CHAPS, 2 mM DTT, (adjusted to pH 7.35)) containing 5-10 μg of MR lysate; 2-4 nM of [^3H]aldosterone; unlabeled aldosterone; and a test compound. Each test compound was assayed at several different concentrations, ranging from 0 to 10^−5 M and each was tested in the presence and in the absence of several different concentrations of unlabeled aldosterone. Each concentration of each test compound was assayed in triplicate. The assay samples were incubated for 16 hours at 4° C.
After incubation, protein was precipitated with hydroxylapatite, collected, and counted as described in Example 158 for GR. Specific binding for a particular sample was calculated using the same equation as was used for GR: (Sample CPM)−(Average Non-specific CPM) Average Non-specific CPM was defined as the amount of radioactivity from samples comprising an excess (i.e. 1000 nM) of unlabeled aldosterone. […] Ki values were determined using the Cheng-Prusoff equation using a previously determined Kd value for aldosterone: Ki=IC50/(1+[L]/Kd) [L]=concentration of labeled aldosterone Kd=dissociation constant of labeled aldosterone

| SMILES | Ki [nM] |
| --- | --- |
| CC(=O)Oc1c(-c2cccc(C#N)c2)cc(C)c2c1C(C)CC(C)(C)N2 (racemic) [Compound 245, (±)-5-Acetoxy-6-(3-cyanophenyl)-1,2,3,4-tetrahydro-2,2,4,8-tetramethylquinoline] | 47 |
| CC1=CC(C)(C)Nc2ccc(-c3cccc(C(F)(F)F)c3)c(Cl)c21 [Compound 230, 5-Chloro-1,2-dihydro-2,2,4-trimethyl-6-[3-(trifluoromethyl)phenyl]quinoline] | 12 |
| CC1=CC(C)(C)Nc2c(C)cc(-c3cccc(C)c3)c(Cl)c21 [Compound 234, 5-Chloro-1,2-dihydro-2,2,4,8-tetramethyl-6-(3-methylphenyl)quinoline] | 85 |
| CCC(=O)c1cccc(-c2cc(C)c3c(c2Cl)C(C)=CC(C)(C)N3)c1 [Compound 238, 5-Chloro-1,2-dihydro-2,2,4,8-tetramethyl-6-[3-(propionyl)phenyl]quinoline] | 18 |
| CC1=CC(C)(C)Nc2ccc(-c3cccc(C(N)=O)c3)c(Cl)c21 [Compound 239, 6-(3-Carbamoylphenyl)-5-chloro-1,2-dihydro-2,2,4-trimethylquinoline] | 22 |

Now from value to compound:

| Ki [nM] | SMILES |
| --- | --- |
| 6 | Cc1cc(-c2csc(C#N)c2)c(Cl)c2c1NC(C)(C)CC2C (racemic) [Compound 244, (±)-5-Chloro-6-(5-cyanothiophen-3-yl)-1,2,3,4-tetrahydro-2,2,4,8-tetramethylquinoline] |
| 60 | Cc1cc(-c2cncnc2)c(Cl)c2c1NC(C)(C)CC2C (racemic) [Compound 256, (±)-5-Chloro-1,2,3,4-tetrahydro-2,2,4,8-tetramethyl-6-(pyrimidin-5-yl)quinoline] |
